In US20140221361A1, “C-19 MODIFIED TRITERPENOIDS WITH HIV MATURATION INHIBITORY ACTIVITY” (priority 2013, published 2014):

Tested on: recombinant NL4-3 virus (Renilla luciferase in nef, Gag P373S)
Test: HIV cell culture assay (luciferase reporter, MT-2 cells)
Type: cell-based, HIV-1
Conditions: MT-2 cells infected for 4-5 days with NLRluc recombinants; luciferase activity; serial dilutions of inhibitor
Method: MT-2 cells and 293T cells were obtained from the NIH AIDS Research and Reference Reagent Program. MT-2 cells were propagated in RPMI 1640 media supplemented with 10% heat inactivated fetal bovine serum, […]. The 293T cells were propagated in DMEM media supplemented with 10% heat inactivated fetal bovine serum (FBS), 100 units/ml penicillin G and 100 µg/ml streptomycin. The proviral DNA clone of NL4-3 was obtained from the NIH AIDS Research and Reference Reagent Program. A recombinant NL4-3 virus, in which a section of the nef gene from NL4-3 was replaced with the Renilla luciferase gene, was used as a reference virus. In addition, residue Gag P373 was converted to P373S. Briefly, the recombinant virus was prepared by transfection of the altered proviral clone of NL4-3. Transfections were performed in 293T cells using LipofectAMINE PLUS from Invitrogen (Carlsbad, Calif.), according to manufacturer's instruction. The virus was titered in MT-2 cells using luciferase enzyme activity as a marker. Luciferase was quantitated using the Dual Luciferase kit from Promega (Madison, Wis.), with modifications to the manufacturer's protocol. The diluted Passive Lysis solution was pre-mixed with the re-suspended Luciferase Assay Reagent and the re-suspended Stop & Glo Substrate (2:1:1 ratio). Fifty (50) μL of the mixture was added to each aspirated well on assay plates and luciferase activity was measured immediately on a Wallac TriLux (Perkin-Elmer). Antiviral activities of inhibitors toward the recombinant virus were quantified by measuring luciferase activity in cells infected for 4-5 days with NLRluc recombinants in the presence serial dilutions of the inhibitor.

Row | SMILES | EC50 [µM]
1 | CC([C@@H]1CC[C@]2(NCCN3CCS(=O)(=O)CC3)CC[C@]3(C)[C@H](CC[C@@H]4[C@@]5(C)CC=C(c6ccc(C(=O)O)cc6)C(C)(C)[C@@H]5CC[C@]43C)[C@@H]12)N(C)C (single isomer, unassigned) [Example B40] | 0.04
2 | CC(O)[C@@H]1CC[C@]2(NCCN3CCS(=O)(=O)CC3)CC[C@]3(C)[C@H](CC[C@@H]4[C@@]5(C)CC=C(c6ccc(C(=O)O)cc6)C(C)(C)[C@@H]5CC[C@]43C)[C@@H]12 (single isomer, unassigned) [Example B12] | 0.00395

Same assay, conditions: Renilla, NL43, MT-2 cells infected for 4-5 days with NLRluc recombinants; luciferase activity; serial dilutions of inhibitor

Row | SMILES | EC50 [µM]
3 | C=C(COCCN1CCOCC1)[C@@H]1CC[C@]2(C(=O)NCCCn3ccnc3)CC[C@]3(C)[C@H](CC[C@@H]4[C@@]5(C)CC=C(c6ccc(C(=O)O)cc6)C(C)(C)[C@@H]5CC[C@]43C)[C@@H]12 [Example 16, 4-((1R,3aS,5aR,5bR,7aR,11aS,11bR,13aR,13bS)-3a-(3-(1H-imidazol-1-yl)propylcarbamoyl)-5a,5b,8,8,11a-pentamethyl-1-(3-(2-morpholinoethoxy)prop-1-en-2-yl)-2,3,3a,4,5,5a,5b,6,7,7a,8,11,11a,11b,12,13,13a,13b-octadecahydro-1H-cyclopenta[a]chrysen-9-yl)benzoic acid] | 0.00248
4 | COCC(C)(O)[C@@H]1CC[C@]2(NCCN3CCS(=O)(=O)CC3)CC[C@]3(C)[C@H](CC[C@@H]4[C@@]5(C)CC=C(c6ccc(C(=O)O)cc6)C(C)(C)[C@@H]5CC[C@]43C)[C@@H]12 (single isomer, unassigned) [Example B1] | 0.00119
5 | CC1(C)C(c2ccc(C(=O)O)cc2)=CC[C@]2(C)[C@H]3CC[C@@H]4[C@H]5[C@H](c6nnco6)CC[C@]5(NCCN5CCS(=O)(=O)CC5)CC[C@@]4(C)[C@]3(C)CC[C@@H]12 [Example B31, 4-((1R,3aS,5aR,5bR,7aR,11aS,11bR,13aR,13bS)-3a-((2-(1,1-dioxidothiomorpholino)ethyl)amino)-5a,5b,8,8,11a-pentamethyl-1-(1,3,4-oxadiazol-2-yl)-2,3,3a,4,5,5a,5b,6,7,7a,8,11,11a,11b,12,13,13a,13b-octadecahydro-1H-cyclopenta[a]chrysen-9-yl)benzoic acid] | 0.03
6 | CC(=O)[C@@H]1CC[C@]2(NCCN3CCS(=O)(=O)CC3)CC[C@]3(C)[C@H](CC[C@@H]4[C@@]5(C)CC=C(c6ccc(C(=O)O)cc6)C(C)(C)[C@@H]5CC[C@]43C)[C@@H]12 [Example B47, 4-((1R,3aS,5aR,5bR,7aR,11aS,11bR,13aR,13bS)-1-acetyl-3a-((2-(1,1-dioxidothiomorpholino)ethyl)amino)-5a,5b,8,8,11a-pentamethyl-2,3,3a,4,5,5a,5b,6,7,7a,8,11,11a,11b,12,13,13a,13b-octadecahydro-1H-cyclopenta[a]chrysen-9-yl)benzoic acid] | 0.01
7 | CC1(C)C(c2ccc(C(=O)O)cc2)=CC[C@]2(C)[C@H]3CC[C@@H]4[C@H]5[C@H](C(=O)COS(=O)O)CC[C@]5(NCCN5CCS(=O)(=O)CC5)CC[C@@]4(C)[C@]3(C)CC[C@@H]12 [Example B24, 4-((1R,3aS,5aR,5bR,7aR,11aS,11bR,13aR,13bS)-3a-((2-(1,1-dioxidothiomorpholino)ethyl)amino)-5a,5b,8,8,11a-pentamethyl-1-(2-(sulfinooxy)acetyl)-2,3,3a,4,5,5a,5b,6,7,7a,8,11,11a,11b,12,13,13a,13b-octadecahydro-1H-cyclopenta[a]chrysen-9-yl)benzoic acid] | 1
8 | CC1([C@@H]2CC[C@]3(NCCN4CCS(=O)(=O)CC4)CC[C@]4(C)[C@H](CC[C@@H]5[C@@]6(C)CC=C(c7ccc(C(=O)O)c(F)c7)C(C)(C)[C@@H]6CC[C@]54C)[C@@H]23)CO1 (stereo partly drawn) [Example A3, 4-((1R,3aS,5aR,5bR,7aR,11aS,11bR,13aR,13bS)-3a-((2-(1,1-dioxidothiomorpholino)ethyl)amino)-5a,5b,8,8,11a-pentamethyl-1-(2-methyloxiran-2-yl)-2,3,3a,4,5,5a,5b,6,7,7a,8,11,11a,11b,12,13,13a,13b-octadecahydro-1H-cyclopenta[a]chrysen-9-yl)-2-fluorobenzoic acid] | 0.01
9 | CC(CF)[C@@H]1CC[C@]2(NCCN3CCS(=O)(=O)CC3)CC[C@]3(C)[C@H](CC[C@@H]4[C@@]5(C)CC=C(c6ccc(C(=O)O)cc6)C(C)(C)[C@@H]5CC[C@]43C)[C@@H]12 (single isomer, unassigned) [Example B8] | 0.00251
10 | C=C(CNCCN1CCOCC1)[C@@H]1CC[C@]2(C(=O)O)CC[C@]3(C)[C@H](CC[C@@H]4[C@@]5(C)CC=C(c6ccc(C(=O)O)cc6)C(C)(C)[C@@H]5CC[C@]43C)[C@@H]12 [Example 1, (1R,3aS,5aR,5bR,7aR,11aS,11bR,13aR,13bS)-9-(4-carboxyphenyl)-5a,5b,8,8,11a-pentamethyl-1-(3-(2-morpholinoethylamino)prop-1-en-2-yl)-2,3,3a,4,5,5a,5b,6,7,7a,8,11,11a,11b,12,13,13a,13b-octadecahydro-1H-cyclopenta[a]chrysene-3a-carboxylic acid] | 0.04
11 | CC(NC(=O)C(F)(F)F)[C@@H]1CC[C@]2(NCCN3CCS(=O)(=O)CC3)CC[C@]3(C)[C@H](CC[C@@H]4[C@@]5(C)CC=C(c6ccc(C(=O)O)cc6)C(C)(C)[C@@H]5CC[C@]43C)[C@@H]12 (stereo partly drawn) [Example B23, 4-((1R,3aS,5aR,5bR,7aR,11aS,11bR,13aR,13bS)-3a-((2-(1,1-dioxidothiomorpholino)ethyl)amino)-5a,5b,8,8,11a-pentamethyl-1-(1-(2,2,2-trifluoroacetamido)ethyl)-2,3,3a,4,5,5a,5b,6,7,7a,8,11,11a,11b,12,13,13a,13b-octadecahydro-1H-cyclopenta[a]chrysen-9-yl)benzoic acid] | 0.00116
12 | CC(=O)N[C@@H]1CC[C@]2(NCCN3CCS(=O)(=O)CC3)CC[C@]3(C)[C@H](CC[C@@H]4[C@@]5(C)CC=C(c6ccc(C(=O)O)cc6)C(C)(C)[C@@H]5CC[C@]43C)[C@@H]12 [Example B36, 4-((1R,3aR,5aR,5bR,7aR,11aS,11bR,13aR,13bS)-1-acetamido-3a-((2-(1,1-dioxidothiomorpholino)ethyl)amino)-5a,5b,8,8,11a-pentamethyl-2,3,3a,4,5,5a,5b,6,7,7a,8,11,11a,11b,12,13,13a,13b-octadecahydro-1H-cyclopenta[a]chrysen-9-yl)benzoic acid] | 0.00629
13 | CC1(C)C(c2ccc(C(=O)O)cc2)=CC[C@]2(C)[C@H]3CC[C@@H]4[C@H]5[C@H](C(=O)O)CC[C@]5(NCCN5CCS(=O)(=O)CC5)CC[C@@]4(C)[C@]3(C)CC[C@@H]12 [Example B17, (1R,3aS,5aR,5bR,7aR,11aS,11bR,13aR,13bS)-9-(4-carboxyphenyl)-3a-((2-(1,1-dioxidothiomorpholino)ethyl)amino)-5a,5b,8,8,11a-pentamethyl-2,3,3a,4,5,5a,5b,6,7,7a,8,11,11a,11b,12,13,13a,13b-octadecahydro-1H-cyclopenta[a]chrysene-1-carboxylic acid] | 2.07
